Test results published in ChEMBL document CHEMBL5291721, “A preclinical secondary pharmacology resource illuminates target-adverse drug reaction associations of marketed drugs” (Nat Commun, 2023).

Experiments:
Androgen receptor = target: T1, Androgen receptor (Homo sapiens, UniProt P10275)
T1 sequence (P10275 whole entry): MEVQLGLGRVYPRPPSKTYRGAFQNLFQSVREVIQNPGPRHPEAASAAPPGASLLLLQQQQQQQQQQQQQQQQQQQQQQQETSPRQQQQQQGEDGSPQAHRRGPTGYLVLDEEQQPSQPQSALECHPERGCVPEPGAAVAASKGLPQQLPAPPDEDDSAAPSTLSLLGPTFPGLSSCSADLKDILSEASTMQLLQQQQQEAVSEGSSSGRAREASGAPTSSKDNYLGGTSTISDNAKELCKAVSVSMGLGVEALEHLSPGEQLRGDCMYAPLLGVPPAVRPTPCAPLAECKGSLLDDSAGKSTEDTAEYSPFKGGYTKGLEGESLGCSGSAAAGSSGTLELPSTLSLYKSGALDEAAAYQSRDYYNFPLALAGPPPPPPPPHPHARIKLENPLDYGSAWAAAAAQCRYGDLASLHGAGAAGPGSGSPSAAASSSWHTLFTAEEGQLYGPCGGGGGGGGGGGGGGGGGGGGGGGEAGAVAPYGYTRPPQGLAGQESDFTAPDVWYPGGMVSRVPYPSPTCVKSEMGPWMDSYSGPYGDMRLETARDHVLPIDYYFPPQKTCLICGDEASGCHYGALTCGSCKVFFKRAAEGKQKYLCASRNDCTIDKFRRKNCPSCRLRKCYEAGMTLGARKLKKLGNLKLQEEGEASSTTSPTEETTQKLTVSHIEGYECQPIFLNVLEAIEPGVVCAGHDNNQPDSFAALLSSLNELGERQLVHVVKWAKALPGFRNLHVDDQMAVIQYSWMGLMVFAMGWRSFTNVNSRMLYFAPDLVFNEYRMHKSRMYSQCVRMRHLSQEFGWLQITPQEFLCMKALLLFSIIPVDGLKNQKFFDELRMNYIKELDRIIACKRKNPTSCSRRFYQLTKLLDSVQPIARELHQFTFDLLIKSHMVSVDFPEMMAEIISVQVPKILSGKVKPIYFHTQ

[1] = target: T2, 5-hydroxytryptamine receptor 3A (Homo sapiens, UniProt P46098); assay type: functional
T2 sequence (P46098 whole entry): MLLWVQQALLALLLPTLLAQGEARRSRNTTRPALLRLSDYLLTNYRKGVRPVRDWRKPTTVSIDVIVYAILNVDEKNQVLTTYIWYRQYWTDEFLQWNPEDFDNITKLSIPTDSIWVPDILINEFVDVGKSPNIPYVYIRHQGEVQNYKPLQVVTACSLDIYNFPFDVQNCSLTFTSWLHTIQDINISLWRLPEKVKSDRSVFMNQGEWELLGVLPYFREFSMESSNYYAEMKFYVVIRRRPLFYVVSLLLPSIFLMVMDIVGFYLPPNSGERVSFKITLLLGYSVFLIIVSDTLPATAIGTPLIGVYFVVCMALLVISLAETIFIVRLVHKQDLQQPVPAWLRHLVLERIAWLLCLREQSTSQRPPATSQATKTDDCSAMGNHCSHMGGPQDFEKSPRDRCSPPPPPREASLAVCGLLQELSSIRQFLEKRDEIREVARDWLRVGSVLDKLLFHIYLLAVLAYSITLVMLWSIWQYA

Adenosine receptor A1 = target: T3, Adenosine receptor A1 (Homo sapiens, UniProt P30542)
T3 sequence (P30542 whole entry): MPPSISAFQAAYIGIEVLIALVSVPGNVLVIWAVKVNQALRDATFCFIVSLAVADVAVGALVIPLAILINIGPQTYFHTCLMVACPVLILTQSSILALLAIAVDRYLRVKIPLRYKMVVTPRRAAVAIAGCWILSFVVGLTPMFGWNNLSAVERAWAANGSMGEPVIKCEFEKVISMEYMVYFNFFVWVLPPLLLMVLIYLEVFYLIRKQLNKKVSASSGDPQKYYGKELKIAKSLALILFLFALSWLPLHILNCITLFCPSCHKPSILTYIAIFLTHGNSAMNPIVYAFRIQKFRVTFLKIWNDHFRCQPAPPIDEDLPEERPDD

[2] = target: Beta-1 adrenergic receptor (Homo sapiens, UniProt P08588); assay type: functional
[3] = target: T4, 5-hydroxytryptamine receptor 2C (Homo sapiens, UniProt P28335)
T4 sequence (P28335 whole entry): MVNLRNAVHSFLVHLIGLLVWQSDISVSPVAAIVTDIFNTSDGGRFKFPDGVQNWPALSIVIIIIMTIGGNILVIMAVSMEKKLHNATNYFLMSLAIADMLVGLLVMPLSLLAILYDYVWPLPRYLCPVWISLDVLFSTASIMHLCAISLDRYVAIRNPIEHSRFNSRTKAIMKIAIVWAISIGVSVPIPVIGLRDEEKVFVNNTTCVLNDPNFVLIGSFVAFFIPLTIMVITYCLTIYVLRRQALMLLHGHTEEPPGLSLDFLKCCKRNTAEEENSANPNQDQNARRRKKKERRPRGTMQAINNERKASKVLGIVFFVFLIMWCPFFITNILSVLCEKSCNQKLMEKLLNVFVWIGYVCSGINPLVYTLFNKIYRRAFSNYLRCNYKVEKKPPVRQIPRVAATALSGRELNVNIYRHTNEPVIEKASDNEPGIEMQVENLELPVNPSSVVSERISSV

Motilin receptor = Motilin receptor (Homo sapiens, UniProt O43193)
[4] = target: T5, Alpha-2C adrenergic receptor (Homo sapiens, UniProt P18825); assay type: functional
T5 sequence (P18825 whole entry): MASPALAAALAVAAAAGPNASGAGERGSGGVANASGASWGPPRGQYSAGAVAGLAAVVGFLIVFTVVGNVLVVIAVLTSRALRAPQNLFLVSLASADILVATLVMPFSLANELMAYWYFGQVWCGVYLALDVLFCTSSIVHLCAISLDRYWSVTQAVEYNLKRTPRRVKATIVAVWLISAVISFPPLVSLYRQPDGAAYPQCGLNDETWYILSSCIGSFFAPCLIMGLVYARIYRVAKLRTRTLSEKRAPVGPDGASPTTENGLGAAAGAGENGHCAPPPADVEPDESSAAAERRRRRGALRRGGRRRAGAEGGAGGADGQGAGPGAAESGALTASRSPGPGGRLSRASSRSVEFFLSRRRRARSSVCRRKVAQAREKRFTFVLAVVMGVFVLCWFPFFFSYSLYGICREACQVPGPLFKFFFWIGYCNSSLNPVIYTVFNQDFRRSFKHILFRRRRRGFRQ

[5] = target: 3',5'-cyclic-AMP phosphodiesterase 4D (Homo sapiens, UniProt Q08499); assay type: functional
Vasopressin V2 receptor = Vasopressin V2 receptor (Homo sapiens, UniProt P30518)
Note: assay procedure not described here.

Motilin receptor, sequence (O43193 whole entry): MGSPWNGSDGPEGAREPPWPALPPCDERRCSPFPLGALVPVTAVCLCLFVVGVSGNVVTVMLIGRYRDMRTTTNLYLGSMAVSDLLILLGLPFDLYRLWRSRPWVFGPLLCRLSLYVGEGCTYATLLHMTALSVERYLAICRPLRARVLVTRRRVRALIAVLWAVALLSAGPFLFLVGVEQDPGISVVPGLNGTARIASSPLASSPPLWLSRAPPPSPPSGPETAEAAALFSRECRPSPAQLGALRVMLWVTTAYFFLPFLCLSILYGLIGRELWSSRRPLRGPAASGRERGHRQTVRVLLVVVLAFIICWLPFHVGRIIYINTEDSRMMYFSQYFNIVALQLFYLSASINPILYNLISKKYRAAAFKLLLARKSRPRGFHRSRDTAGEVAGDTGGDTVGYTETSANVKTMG
3',5'-cyclic-AMP phosphodiesterase 4D, sequence (Q08499 whole entry): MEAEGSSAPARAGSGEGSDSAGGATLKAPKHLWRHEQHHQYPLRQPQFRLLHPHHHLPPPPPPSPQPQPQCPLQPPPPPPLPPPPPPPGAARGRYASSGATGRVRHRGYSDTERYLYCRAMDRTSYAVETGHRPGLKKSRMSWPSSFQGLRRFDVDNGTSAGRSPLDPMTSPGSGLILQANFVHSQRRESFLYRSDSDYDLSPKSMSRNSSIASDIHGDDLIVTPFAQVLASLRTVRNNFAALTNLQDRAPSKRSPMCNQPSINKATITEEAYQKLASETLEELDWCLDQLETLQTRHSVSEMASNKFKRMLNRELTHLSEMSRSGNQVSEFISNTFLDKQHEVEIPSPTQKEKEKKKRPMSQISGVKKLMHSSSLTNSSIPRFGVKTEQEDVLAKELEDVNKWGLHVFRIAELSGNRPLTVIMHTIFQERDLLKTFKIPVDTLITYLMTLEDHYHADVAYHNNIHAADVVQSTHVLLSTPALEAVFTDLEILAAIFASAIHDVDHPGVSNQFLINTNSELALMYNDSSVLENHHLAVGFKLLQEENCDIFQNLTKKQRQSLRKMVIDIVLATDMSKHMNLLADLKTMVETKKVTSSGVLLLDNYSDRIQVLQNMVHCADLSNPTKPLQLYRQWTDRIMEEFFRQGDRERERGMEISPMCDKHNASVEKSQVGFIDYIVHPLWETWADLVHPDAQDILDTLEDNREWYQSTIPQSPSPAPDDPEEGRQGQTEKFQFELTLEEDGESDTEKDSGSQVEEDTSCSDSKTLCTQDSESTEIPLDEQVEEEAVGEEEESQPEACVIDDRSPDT
Beta-1 adrenergic receptor, sequence (P08588 whole entry): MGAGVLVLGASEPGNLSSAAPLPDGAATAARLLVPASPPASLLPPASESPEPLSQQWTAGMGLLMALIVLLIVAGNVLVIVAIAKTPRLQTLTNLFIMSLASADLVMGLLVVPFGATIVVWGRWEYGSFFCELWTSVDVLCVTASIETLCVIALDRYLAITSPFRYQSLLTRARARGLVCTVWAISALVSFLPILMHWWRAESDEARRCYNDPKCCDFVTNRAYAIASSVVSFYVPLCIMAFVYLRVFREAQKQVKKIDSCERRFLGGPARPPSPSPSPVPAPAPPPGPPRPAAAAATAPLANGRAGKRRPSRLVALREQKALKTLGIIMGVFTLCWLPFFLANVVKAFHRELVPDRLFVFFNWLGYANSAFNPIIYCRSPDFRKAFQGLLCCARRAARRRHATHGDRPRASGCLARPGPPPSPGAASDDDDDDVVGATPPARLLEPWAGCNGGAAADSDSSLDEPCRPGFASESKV
Vasopressin V2 receptor, sequence (P30518 whole entry): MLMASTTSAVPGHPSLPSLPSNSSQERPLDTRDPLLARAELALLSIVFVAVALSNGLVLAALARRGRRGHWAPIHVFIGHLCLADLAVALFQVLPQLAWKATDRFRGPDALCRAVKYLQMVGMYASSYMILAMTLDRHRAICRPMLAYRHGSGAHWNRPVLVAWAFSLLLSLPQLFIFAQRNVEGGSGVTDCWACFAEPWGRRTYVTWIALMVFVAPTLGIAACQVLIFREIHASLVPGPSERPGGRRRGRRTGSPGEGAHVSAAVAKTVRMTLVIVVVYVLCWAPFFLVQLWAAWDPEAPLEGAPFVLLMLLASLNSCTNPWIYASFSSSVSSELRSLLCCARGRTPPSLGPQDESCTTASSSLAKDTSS

| SMILES | AC50 (Androgen receptor) [µM] | other results |
| --- | --- | --- |
| CCCCCCCC(=O)N[C@H](CN1CCCC1)[C@H](O)c1ccc2c(c1)OCCO2 | > 30 |  |
| CC(=O)OC(C)OC(=O)C(C)c1ccc(-c2ccccc2)c(F)c1 (stereo not given) | > 30 |  |
| C[C@H](N)C(=O)O [ALANINE] | > 30 |  |
| O=C(Nc1nc(-c2cc(Cl)cs2)c(N2CCN(C3CCCCC3)CC2)s1)c1cnc(N2CCC(C(=O)O)CC2)c(Cl)c1 [AVATROMBOPAG] | > 30 | AC50 [1]: > 10 µM; AC50 (Adenosine receptor A1): > 10 µM; AC50 [2]: > 10 µM; AC50 [3]: > 10 µM; AC50 (Motilin receptor): > 10 µM; AC50 [4]: > 10 µM; AC50 [5]: > 10 µM |
| COC(=O)C1=C(C)NC(C)=C(C(=O)O[C@H]2CCN(Cc3ccccc3)C2)[C@H]1c1cccc([N+](=O)[O-])c1 [BARNIDIPINE] | > 30 |  |
| Cc1nnc(SCC2=C(C(=O)O)N3C(=O)[C@@H](NC(=O)Cn4cc(Cl)c(=O)c(Cl)c4)[C@H]3SC2)s1 [CEFAZEDONE] | > 30 |  |
| CCC[C@@H]1C[C@@H](C(=O)N[C@@H]([C@H]2O[C@H](SC)[C@H](OP(=O)(O)O)[C@@H](O)[C@H]2O)[C@H](C)Cl)N(C)C1 [CLINDAMYCIN PHOSPHATE] | > 30 |  |
| Oc1c(I)cc(Cl)c2cccnc12 [CLIOQUINOL] | > 30 | AC50 [1]: > 30 µM; AC50 [3]: > 10 µM; AC50 [4]: > 30 µM |
| Nc1ccncc1 [DALFAMPRIDINE] | > 30 |  |
| Cc1onc(-c2c(Cl)cccc2Cl)c1C(=O)N[C@@H]1C(=O)N2[C@@H]1SC(C)(C)[C@@H]2C(=O)O [DICLOXACILLIN] | > 30 |  |
| C[C@H]1O[C@@H](O[C@H]2[C@@H](O)C[C@H](O[C@H]3[C@@H](O)C[C@H](O[C@H]4CC[C@@]5(C)[C@H](CC[C@@H]6[C@@H]5CC[C@]5(C)[C@@H](C7=CC(=O)OC7)CC[C@]65O)C4)O[C@@H]3C)O[C@@H]2C)C[C@H](O)[C@@H]1O [DIGITOXIN] | > 30 |  |
| OC(CCCN1CCCCC1)(c1ccccc1)c1ccccc1 [DIPHENIDOL] | > 30 |  |
| C[C@@H](O)[C@H]1C(=O)N2C(C(=O)O)=C([C@H]3CCCO3)S[C@H]12 [FAROPENEM] | > 30 |  |
| COCCOc1cnc(NS(=O)(=O)c2ccccc2)nc1 [GLYMIDINE] | > 30 |  |
| CCC(=O)O[C@]1(C(=O)COC(C)=O)CC[C@H]2[C@@H]3CCC4=CC(=O)CC[C@]4(C)[C@H]3[C@@H](O)C[C@@]21C [HYDROCORTISONE ACEPONATE] | 0.314 |  |
| NC(=O)NCCC[C@H](N)C(=O)O [L-CITRULLINE] | > 30 |  |

| SMILES | AC50 (Androgen receptor) [µM] | other results |
| --- | --- | --- |
| CC(=O)O[C@H]1C[C@H](O[C@H]2[C@@H](O)C[C@H](O[C@H]3[C@@H](O)C[C@H](O[C@H]4CC[C@@]5(C)[C@H](CC[C@@H]6[C@@H]5C[C@@H](O)[C@]5(C)[C@@H](C7=CC(=O)OC7)CC[C@]65O)C4)O[C@@H]3C)O[C@@H]2C)O[C@H](C)[C@H]1O[C@@H]1O[C@H](CO)[C@@H](O)[C@H](O)[C@H]1O [LANATOSIDE C] | > 30 |  |
| Nc1nc(N)nc(Nc2ccc([As]3SCC(CO)S3)cc2)n1 (stereo not given) [MELARSOPROL] | > 30 |  |
| Cc1cc(CCN2CCN(c3cccc(Cl)c3)CC2)n[nH]1 [MEPIPRAZOLE] | > 30 |  |
| CC[N+](C)(CC)CCOC(=O)C1c2ccccc2Oc2ccccc21 [METHANTHELINE] | > 30 |  |
| CO[C@H]1[C@@H](O)C[C@H](O[C@H]2[C@@H](O)C[C@H](O[C@H]3[C@@H](O)C[C@H](O[C@H]4CC[C@@]5(C)[C@H](CC[C@@H]6[C@@H]5C[C@@H](O)[C@]5(C)[C@@H](C7=CC(=O)OC7)CC[C@]65O)C4)O[C@@H]3C)O[C@@H]2C)O[C@@H]1C [METILDIGOXIN] | > 30 |  |
| CC1(C)S[C@@H]2[C@H](NC(=O)[C@H](NC(=O)N3CCN(S(C)(=O)=O)C3=O)c3ccccc3)C(=O)N2[C@H]1C(=O)O [MEZLOCILLIN] | > 30 |  |
| CCC(=O)O[C@@H]1CC(=O)O[C@H](C)C/C=C/C=C/[C@H](OC(C)=O)[C@H](C)C[C@H](CC=O)[C@H](O[C@@H]2O[C@H](C)[C@@H](O[C@H]3C[C@@](C)(OC(C)=O)[C@@H](OC(=O)CC)[C@H](C)O3)[C@H](N(C)C)[C@H]2O)[C@H]1OC [MIOCAMYCIN] | > 30 |  |
| CC(c1ccc(Cl)c(Cl)c1)N1N=C(N)CC1=O (stereo not given) [MUZOLIMINE] | > 30 |  |
| c1ccc2c(CC3=NCCN3)cccc2c1 [NAPHAZOLINE] | > 30 | AC50 [4]: 0.33 µM |
| c1cc(CN2CCCNCCNCCCNCC2)ccc1CN1CCCNCCNCCCNCC1 [PLERIXAFOR] | > 30 |  |
| CCCC(=O)O[C@H]1[C@H](C)O[C@@H](O[C@H]2[C@H](N(C)C)[C@@H](O)[C@H](O[C@H]3[C@@H](CC=O)C[C@@H](C)[C@@H](O)/C=C/C=C/C[C@@H](C)OC(=O)C[C@@H](O)[C@@H]3OC)O[C@@H]2C)C[C@@]1(C)OC(=O)CC [ROKITAMYCIN] | > 30 |  |
| CCCCCCCCCCCCCCCCCC(=O)NCCCC[C@H](NC(=O)CC[C@@H](NC(=O)[C@H](C)NC(=O)[C@@H](C)O[C@H]1[C@H](O)[C@@H](CO)OC(O)[C@@H]1NC(C)=O)C(N)=O)C(=O)O (stereo not given in full) [ROMURTIDE] | 5.69 |  |
| CCOC(=O)[C@H](CCc1ccccc1)N[C@H]1CS[C@H](c2cccs2)CN(CC(=O)O)C1=O [TEMOCAPRIL] | > 30 |  |
| c1ccc2[nH]c(-c3cscn3)nc2c1 [THIABENDAZOLE] | > 30 |  |
| C[C@@H]1C[C@H]2[C@@H]3CCC4=CC(=O)C=C[C@]4(C)C3=CC[C@]2(C)[C@H]1C(=O)CN1CCN(c2cc(N3CCCC3)nc(N3CCCC3)n2)CC1 [TIRILAZAD] | 6.61 |  |
| OCCN1CCN(CC/C=C2/c3ccccc3Sc3ccc(Cl)cc32)CC1 [ZUCLOPENTHIXOL] |  | AC50 [1]: > 10 µM; AC50 (Adenosine receptor A1): > 10 µM; AC50 [2]: > 10 µM; AC50 [3]: 1 µM; AC50 (Motilin receptor): > 10 µM; AC50 [4]: 0.16 µM; AC50 (Vasopressin V2 receptor): > 10 µM; AC50 [5]: > 10 µM |
